# Measurements as given in patent publication EP1206258B1, “COMPOSITIONS CONTAINING ESTERS FOR TREATING PARASITIC INFESTATIONS OF ORGANISMS” (priority 1999, dated 2001).
# What was measured:
# [1] = system: all stages of blow fly and larval life cycle; experiment: activity against blow fly and larval stages
# Rat = conditions: Oral, Russell 1973; cited from earlier work
# human volunteers = conditions: 24 hour closed-patch test, 25 human volunteers (Kligman 1973); cited from earlier work
# Penicillium digitatum = experiment: growth inhibition test on SAB agar, P. digitatum; format: cell-based; set-up: key to Growth of P. digitatum: - = No Growth; + = Growth; ++ = Extensive Growth
# Protocol: The antifungal activity of ethyl trans-cinnamate against a number of different fungi was investigated by means of in a simple growth inhibition test.
# The following quantities of Ethyl trans-Cinnamate were added to Sabourand Dextrose agar (SAB); 50 ml L^-1, 4ml L^-1, 2ml L^-1, 1ml L^-1, 400 µl L^-1, 200 µl L^-1 and 40 µl L^-1. […] These were then autoclaved and poured into standard Petri dishes. […] Duplicate plates of each concentration, plus control plates containing only SAB Agar, where then separately inoculated with, four different species of fungi, these were Aspergillus nidulans, Penicillium digitatum, Rhizopus arrhizus and Fusarium culmorum. Inoculation was carried out using a single stab at the centre of each Petri dish. The plates were then incubated at 30°C for 6 days and daily measurements of mycobial growth where taken every 24 hours.
# eggs of L.sericata = experiment: in vitro test on hatching of eggs of L.sericata (immersion); set-up: species or system Lucilia sericata; conditions: V/V in 2.0% W/V aqueous lecithin
# Protocol: A series of in vitro tests were carried out to investigate the effects of the compound trans-cinnamic acid ethyl ester on the hatching of eggs of L.sericata.
# A blowfly culture originating from the Central Veterinary Laboratory based in Weybridge, Surrey was used for the tests. None of the original adults had previously been exposed or resistant to insecticides. Eggs aged 10±2 hours of the blowfly were harvested on pig's liver in clusters using a prolene 4/0 paintbrush and examined under the binocular microscope for suitablility. Adult females used to produce these eggs were kept at 20°C, rh 70±5%, with a photoperiod of 8 hours. Groups of 30 eggs were then immediately transferred to a 9-cm Whatman filter paper in a 9-cm plastic petri dish. Two ml of cinnamic acid ethyl ester at concentrations in the range 1.0%; 2.5%; 5.0%; 7.5% and 10.0% V/V was poured gently into the petri dish immersing the eggs. Each concentration was previously prepared by dilution of active compound in a 2.0% W/V aqueous lecithin solution pre-warmed to 20°C. The mixture was sonicated for two minutes. After an exposure time of 1 minute, the test solution was carefully poured off and the eggs recovered individually to a 7ml polythene container in which a filter paper was saturated with pig's liver washings. […] Eggs following treatment were incubated at 25°C, rh 70±2% with a photoperiod of 8 hours duration. Hatching typically occurred within 12 hours of treatment.
# Each concentration was replicated twice; controls were treated using only lecithin solution. The whole experiment was repeated using two further exposure times of 30 minutes and 90 minutes respectively.
# The data were analysed using fitted curve graphical analysis. […] The data gathered from the experiment with an exposure time of 1 minute was also expressed using the probit transformation.
# Fitted curves were used to calculate the concentration required to kill 50% of the eggs, (LC50) using the data obtained after immersing the eggs in solutions ranging from 1.0% to 10.0% V/V. The median lethal concentrations, (LC50) and LC95 concentrations are shown in Table 4 below:- Table 4
# Acarus siro = experiment: residual filter paper bioassay on Acarus siro (Table 2a)
# Protocol: The effect of trans-cinnamic acid ethyl ester on the mite Acarus siro was investigated using a residual filter paper bioassay. Seven samples of 0.01g of mite culture was placed on 7, 90mm Whatman™ filter papers. Each paper was previously treated with 745µl of a solution containing trans-cinnamic acid ethyl ester at concentrations varying from 74.64µl to 7.64 x 10^-4 µl/petri dish respectively and allowed to dry for 15 minutes. The controls were treated in the same way except ethanol (HPLC grade) was used as this was sample dilutant. Percentage control was calculated as in W.S. Abbot, A Method of Computing the Effectiveness of an Insecticide, Journal of Economic Entomology (1925) 18, 265-267.
# [2] = Lethal Concentrations at 1 minute
# [3] = Lethal Concentrations at 30 minutes
compound,measurement,setting,value
CCOC(=O)/C=C/c1ccccc1 [trans-cinnamic acid ethyl ester],effectiveness against all stages of blow fly and larval life cycle,[1],ineffective
same,LDSO,Rat,7800 mg/kg
same,sensitization,human volunteers,no sensitization
same,Growth of P. digitatum,"Penicillium digitatum; 1ml L^-1, Day 1",-
same,Growth of P. digitatum,"Penicillium digitatum; 1ml L^-1, Day 2",-
same,Growth of P. digitatum,"Penicillium digitatum; 1ml L^-1, Day 3",-
same,Growth of P. digitatum,"Penicillium digitatum; 1ml L^-1, Day 4",+
same,Growth of P. digitatum,"Penicillium digitatum; 1ml L^-1, Day 5",+
same,Growth of P. digitatum,"Penicillium digitatum; 1ml L^-1, Day 6",+
same,Growth of P. digitatum,"Penicillium digitatum; 2ml L^-1, Day 1",-
same,Growth of P. digitatum,"Penicillium digitatum; 2ml L^-1, Day 2",-
same,Growth of P. digitatum,"Penicillium digitatum; 2ml L^-1, Day 3",-
same,Growth of P. digitatum,"Penicillium digitatum; 2ml L^-1, Day 4",-
same,Growth of P. digitatum,"Penicillium digitatum; 2ml L^-1, Day 5",-
same,Growth of P. digitatum,"Penicillium digitatum; 2ml L^-1, Day 6",-
same,Growth of P. digitatum,"Penicillium digitatum; 4ml L^-1, Day 1",-
same,Growth of P. digitatum,"Penicillium digitatum; 4ml L^-1, Day 2",-
same,Growth of P. digitatum,"Penicillium digitatum; 4ml L^-1, Day 3",-
same,Growth of P. digitatum,"Penicillium digitatum; 4ml L^-1, Day 4",-
same,Growth of P. digitatum,"Penicillium digitatum; 4ml L^-1, Day 5",-
same,Growth of P. digitatum,"Penicillium digitatum; 4ml L^-1, Day 6",-
same,Growth of P. digitatum,"Penicillium digitatum; 40µl L^-1, Day 1",-
same,Growth of P. digitatum,"Penicillium digitatum; 40µl L^-1, Day 2",++
same,Growth of P. digitatum,"Penicillium digitatum; 40µl L^-1, Day 3",++
same,Growth of P. digitatum,"Penicillium digitatum; 40µl L^-1, Day 4",++
same,Growth of P. digitatum,"Penicillium digitatum; 40µl L^-1, Day 5",++
same,Growth of P. digitatum,"Penicillium digitatum; 40µl L^-1, Day 6",++
same,duration of complete inhibition of growth,"Penicillium digitatum; 50ml L-^1 and higher doses, further experiments, data not shown",at least 8 days
same,inhibition of growth,Penicillium digitatum; 50ml L-^1 level,complete inhibition of growth
same,Growth of P. digitatum,"Penicillium digitatum; 50 ml L^-1, Day 1",-
same,Growth of P. digitatum,"Penicillium digitatum; 50 ml L^-1, Day 2",-
same,Growth of P. digitatum,"Penicillium digitatum; 50 ml L^-1, Day 3",-
same,Growth of P. digitatum,"Penicillium digitatum; 50 ml L^-1, Day 4",-
same,Growth of P. digitatum,"Penicillium digitatum; 50 ml L^-1, Day 5",-
same,Growth of P. digitatum,"Penicillium digitatum; 50 ml L^-1, Day 6",-
same,Growth of P. digitatum,"Penicillium digitatum; 200µl L^-1, Day 1",-
same,Growth of P. digitatum,"Penicillium digitatum; 200µl L^-1, Day 2",++
same,Growth of P. digitatum,"Penicillium digitatum; 200µl L^-1, Day 3",++
same,Growth of P. digitatum,"Penicillium digitatum; 200µl L^-1, Day 4",++
same,Growth of P. digitatum,"Penicillium digitatum; 200µl L^-1, Day 5",++
same,Growth of P. digitatum,"Penicillium digitatum; 200µl L^-1, Day 6",++
same,Growth of P. digitatum,"Penicillium digitatum; 400µl L^-1, Day 1",-
same,Growth of P. digitatum,"Penicillium digitatum; 400µl L^-1, Day 2",+
same,Growth of P. digitatum,"Penicillium digitatum; 400µl L^-1, Day 3",++
same,Growth of P. digitatum,"Penicillium digitatum; 400µl L^-1, Day 4",++
same,Growth of P. digitatum,"Penicillium digitatum; 400µl L^-1, Day 5",++
same,Growth of P. digitatum,"Penicillium digitatum; 400µl L^-1, Day 6",++
same,LC50,eggs of L.sericata; [2],LC50 2.76%
same,LC95,eggs of L.sericata; [2],LC95>7.50%
same,LC50,eggs of L.sericata; [3],LC50 1.78%
same,LC95,eggs of L.sericata; [3],LC95>5.00%
same,LC50,eggs of L.sericata; Lethal Concentrations at 90 minutes,LC50 0.36%
same,percentage control figure,Acarus siro; 7.64µl/petri dish,100%
same,Mean Percentage Mortality Over Control,Acarus siro; Concentration (µl) 3.20,95.57
same,Mean Percentage Mortality Over Control,Acarus siro; Concentration (µl) 3.20 x 10^1,100.00
same,Mean Percentage Mortality Over Control,Acarus siro; Concentration (µl) 3.20 x 10^-1,97.74
same,Mean Percentage Mortality Over Control,Acarus siro; Concentration (µl) 3.20 x 10^-2,69.51
same,Mean Percentage Mortality Over Control,Acarus siro; Concentration (µl) 3.20 x 10^-3,32.95
same,Mean Percentage Mortality Over Control,Acarus siro; Concentration (µl) 3.20 x 10^-4,6.33
